Assay results taken from ChEMBL document CHEMBL5365500, “Development and Antibacterial Properties of 4-[4-(Anilinomethyl)-3-phenylpyrazol-1-yl]benzoic Acid Derivatives as Fatty Acid Biosynthesis Inhibitors” (J Med Chem, 2023).
Converted amounts (≈) assume the structure as drawn. The source made the active and inactive calls. No cut-off for these calls is given here.

What was measured:
[1] = system: Staphylococcus aureus; assay: Antimicrobial activity against clinical isolate Staphylococcus aureus Smu9 assessed as inhibition of growth measured after 20 to 24 hrs incubation by CLSI method; format: functional; settings: time 20-24 hrs
[2] = Toxicity in Caenorhabditis elegans AU37 assessed as survival at 4 ug/ml measured for 4 days; settings: 96 h, dose 4 µg/ml, time 4 day
[3] = system: Staphylococcus aureus; assay: Antimicrobial activity against Staphylococcus aureus UAB159 assessed as inhibition of growth measured after 20 to 24 hrs incubation by CLSI method; format: functional; settings: time 20-24 hrs
[4] = system: Staphylococcus aureus; assay: Antimicrobial activity against clinical isolate Staphylococcus aureus Smu21 assessed as inhibition of growth measured after 20 to 24 hrs incubation by CLSI method; format: functional; settings: time 20-24 hrs
[5] = system: Cell membrane; assay: Induction of membrane permeability in Staphylococcus aureus ATCC 700699 assessed as increase in fluorescence intensity at 4 times of MIC incubated for 15 mins measured for 1 hr by propidium iodide/real time fluorescence based flow cytometry Rvb = 3.5); settings: time 75.0 min
[6] = system: Cell membrane; assay: Induction of membrane permeability in Staphylococcus aureus ATCC 700699 assessed as increase in fluorescence at 8 times of MIC incubated for 15 mins measured for 1 hr by propidium iodide/real time fluorescence based flow cytometry; format: subcellular
[7] = system: Cell membrane; assay: Induction of membrane permeability in Staphylococcus aureus ATCC 700699 assessed as increase in fluorescence intensity at 1 times of MIC incubated for 15 mins measured for 1 hr by propidium iodide/real time fluorescence based flow cytometry Rvb = 3.5); settings: time 75.0 min
[8] = system: Staphylococcus aureus; assay: Antimicrobial activity against antibiotic-resistant Staphylococcus aureus ATCC BAA-2312 assessed as inhibition of visible growth measured after 20 to 24 hrs incubation by CLSI method; format: functional; settings: time 20-24 hrs
[9] = system: Staphylococcus aureus; assay: Antimicrobial activity against clinical isolate Staphylococcus aureus Smu81 assessed as inhibition of growth measured after 20 to 24 hrs incubation by CLSI method; format: functional; settings: time 20-24 hrs
[10] = system: Enterococcus faecalis; assay: Antimicrobial activity against Enterococcus faecalis ATCC 29212 assessed as inhibition of biofilm formation by measuring prevention of turbidity after 24 hrs incubation by Real-time monitoring method; format: functional
[11] = system: Staphylococcus aureus; assay: Antimicrobial activity against methicillin-resistant Staphylococcus aureus USA300 infected in liquid-based Caenorhabditis elegans co-infection model assessed as rescue of worms by measuring viability at 4 ug/ml incubated for 5 days (reference value: 20%); format: functional; settings: dose 4 µg/ml; time 5 day
[12] = system: Staphylococcus aureus; assay: Antimicrobial activity against methicillin-resistant Staphylococcus aureus USA300 infected in liquid-based Caenorhabditis elegans co-infection model assessed as rescue of worms by measuring viability at 2 ug/ml incubated for 5 days (reference value: 20%); format: functional; settings: dose 2 µg/ml; time 5 day
[13] = system: Panel NCI-60 (60 carcinoma cell lines); assay: Cytotoxicity against human panel NCI-60 (60 carcinoma cell lines)cells assessed as cell viability at 10 uM measured after 24 hrs by resazurin assay; format: functional, cell-based
[14] = system: Staphylococcus aureus; assay: In vivo antimicrobial activity against Staphylococcus aureus UAMS-1 infected in Caenorhabditis elegans AU37 nematodes assessed as viability of nematodes incubated for 5 days by susceptibility test; format: functional; settings: UAMS-1, 120 h, time 5 day
[15] = system: Staphylococcus aureus; assay: Antimicrobial activity against antibiotic-resistant Staphylococcus aureus ATCC 33591 assessed as inhibition of visible growth measured after 20 to 24 hrs incubation by CLSI method; format: functional; settings: time 20-24 hrs
[16] = system: Enterococcus faecium; assay: Antimicrobial activity against Enterococcus faecium […] assessed as inhibition of biofilm formation after 24 hrs incubation by Real-time monitoring method; format: functional
[17] = system: Cell membrane; assay: Induction of membrane permeability in Staphylococcus aureus ATCC 700699 assessed as increase in fluorescence at 4 times of MIC incubated for 15 mins measured for 1 hr by propidium iodide/real time fluorescence based flow cytometry; format: subcellular; settings: time 75.0 min
[18] = system: Cell membrane; assay: Induction of membrane permeability in Staphylococcus aureus ATCC 700699 assessed as increase in fluorescence at 0.5 to 2 times of MIC incubated for 15 mins measured for 1 hr by propidium iodide/real time fluorescence based flow cytometry; format: subcellular; settings: time 75.0 min
[19] = system: Staphylococcus aureus; assay: Antimicrobial activity against methicilline-resistant Staphylococcus aureus ATCC 700699 persisters assessed as bacterial killing at 32 time of MIC concentration measured for every 2 hrs upto 8 hrs by Persisters time course assay; format: functional, organism-based
[20] = system: Staphylococcus aureus; assay: Antimicrobial activity against antibiotic-resistant Staphylococcus aureus ATCC 33592 assessed as inhibition of visible growth measured after 20 to 24 hrs incubation by CLSI method; format: functional; settings: time 20-24 hrs
[21] = system: Erythrocyte; assay: Hemolytic activity in sheep red blood cells assessed as hemolysis at 16 to 32 ug/ml incubated for 30 mins relative to control; format: toxicity, cell-based, Ovis aries; settings: 0.5 h, dose 16-32 µg/ml
[22] = system: Staphylococcus aureus; assay: Antimicrobial activity against methicillin-resistant Staphylococcus aureus USA300 infected in liquid-based Caenorhabditis elegans co-infection model assessed as rescue of worms by measuring viability at 1 ug/ml incubated for 5 days (reference value: 20%); format: functional; settings: dose 1 µg/ml; time 5 day
[23] = Toxicity in Caenorhabditis elegans AU37 assessed as survival at 20 ug/ml measured for 4 days; settings: at 20 µg/mL, time 4 day
[24] = system: Staphylococcus aureus; assay: Antimicrobial activity against Staphylococcus aureus ATCC 25923 assessed as inhibition of biofilm formation by measuring prevention of turbidity after 24 hrs incubation by Real-time monitoring method; format: functional
[25] = system: Enterococcus faecalis; assay: Antimicrobial activity against antibiotic-susceptible Enterococcus faecalis ATCC 29212 assessed as inhibition of biofilm formation by measuring prevention of turbidity after 24 hrs incubation by Real-time monitoring method; format: functional
[26] = system: Staphylococcus aureus; assay: In vivo antimicrobial activity against Staphylococcus aureus USA300 infected in Caenorhabditis elegans AU37 nematodes assessed as viability of nematodes incubated for 5 days by susceptibility test; format: functional; settings: USA300, 120 h, time 5 day
[27] = system: Bacillus subtilis; assay: Antimicrobial activity against antibiotic-resistant Bacillus subtilis ATCC 6623 assessed as inhibition of visible growth measured after 20 to 24 hrs incubation by CLSI method; format: functional; settings: time 20-24 hrs
[28] = system: Staphylococcus aureus; assay: Bactericidal activity in antibiotic-resistant Staphylococcus aureus ATCC 700699 assessed as reduction in viable cell count at 4 times of MIC measured upto 24 hrs by time kill assay; format: functional, organism-based
[29] = system: Erythrocyte; assay: Hemolytic activity in sheep red blood cells assessed as hemolysis at 64 ug/ml incubated for 30 mins relative to control; format: toxicity, cell-based, Ovis aries; settings: 0.5 h, at 64 µg/mL
[30] = system: Cell membrane; assay: Induction of membrane permeability in Staphylococcus aureus ATCC 700699 assessed as increase in fluorescence intensity at 2 times of MIC incubated for 15 mins measured for 1 hr by propidium iodide/real time fluorescence based flow cytometry Rvb = 3.5); format: subcellular; settings: time 75.0 min
[31] = system: Staphylococcus aureus; assay: In vivo antimicrobial activity against Staphylococcus aureus Newman infected in Caenorhabditis elegans AU37 nematodes assessed as viability of nematodes incubated for 5 days by susceptibility test; format: functional; settings: 120 h, time 5 day
[32] = system: HEK293; assay: Cytotoxicity against human HEK293 cells assessed as cell viability measured after 24 hrs by resazurin assay; format: toxicity, cell-based
[33] = system: Staphylococcus aureus; assay: Antimicrobial activity against methicilline-resistant Staphylococcus aureus ATCC 700699 persisters assessed as reduction in initial persister concentration at 8 times of MIC concentration measured for 8 hrs by Persisters time course assay; format: functional
[34] = system: Staphylococcus aureus; assay: Antimicrobial activity against methicilline-resistant Staphylococcus aureus ATCC 700699 persisters assessed as reduction in initial persister concentration at 2 times of MIC concentration measured for 2 to 8 hrs by Persisters time course assay; format: functional, organism-based; settings: time 2-8 hrs
[35] = system: Staphylococcus aureus; assay: Antimicrobial activity against Staphylococcus aureus ATCC 25923 assessed as inhibition of visible growth measured after 20 to 24 hrs incubation by CLSI method; format: functional; settings: time 20-24 hrs
[36] = system: Cell membrane; assay: Induction of membrane damage in Staphylococcus aureus ATCC 700699 assessed as cell surface damage at 1 to 4 times of MIC measured after 30 mins by Scanning electron microscopy; format: subcellular
[37] = system: Staphylococcus aureus; assay: Antimicrobial activity against antibiotic-susceptible Staphylococcus aureus ATCC 25923 assessed as inhibition of biofilm formation on plastic coverslips at 0.5 times of MIC measured after 24 hrs by electron microscopy; format: functional, organism-based
[38] = system: Staphylococcus aureus; assay: Antimicrobial activity against antibiotic-susceptible Staphylococcus aureus ATCC 25923 assessed as inhibition of biofilm formation by measuring prevention of turbidity after 24 hrs incubation by Real-time monitoring method; format: functional
[39] = system: Staphylococcus aureus; assay: Antimicrobial activity against clinical isolate Staphylococcus aureus Smu109 assessed as inhibition of growth measured after 20 to 24 hrs incubation by CLSI method; format: functional; settings: time 20-24 hrs
[40] = system: Staphylococcus aureus; assay: Antimicrobial activity against methicilline-resistant Staphylococcus aureus ATCC 700699 persisters assessed as reduction in initial persister concentration at 16 times of MIC concentration measured for 6 hrs by Persisters time course assay; format: functional, organism-based
[41] = system: Staphylococcus aureus; assay: Antimicrobial activity against clinical isolate Staphylococcus aureus Smu57 assessed as inhibition of growth measured after 20 to 24 hrs incubation by CLSI method; format: functional; settings: time 20-24 hrs

SMILES	MIC [1]	Activity [2]	MIC [3]	MIC [4]	Activity [5]	Activity [6]	Activity [7]	MIC [8]	MIC [9]	MIC [10]	Activity [13]	MIC [14]	MIC [15]	MBIC [16]	Activity [18]	MIC [20]	Activity [21]	survival at 96 h, 20 ug/ml [23]	MIC [24]	MBBC [25]	also measured
O=C(O)c1ccc(-n2cc(CNc3ccc(Cl)c(C(F)(F)F)c3)c(-c3cccc(F)c3)n2)cc1	2 µg/mL (≈ 4.08 µM)	Non-Toxic	4 µg/mL (≈ 8.17 µM)	4 µg/mL (≈ 8.17 µM)	95.6%	inactive	22.3%	1 µg/mL (≈ 2.04 µM)	4 µg/mL (≈ 8.17 µM)	8 µg/mL (≈ 16.3 µM)	inactive	1 µg/mL (≈ 2.04 µM)	1 µg/mL (≈ 2.04 µM)	8 µg/mL	inactive	1 µg/mL (≈ 2.04 µM)	Non-Toxic	> 80%	4 µg/mL (≈ 8.17 µM)	16 µg/mL	Activity [11]: 90%; Activity [12]: 90%; Activity [17]: Active; Activity [19]: Active; Activity [22]: 90%; MIC [26]: 2 µg/mL (≈ 4.08 µM); MIC [27]: 0.5 µg/mL (≈ 1.02 µM); Activity [28]: Active; Activity [29]: < 10%; Activity [30]: 32.3%; MIC [31]: 1 µg/mL (≈ 2.04 µM)
O=C(O)c1ccc(-n2cc(CNc3cc(Br)cc(C(F)(F)F)c3)c(-c3ccc(F)c(F)c3)n2)cc1	2 µg/mL (≈ 3.62 µM)	Non-Toxic	4 µg/mL (≈ 7.24 µM)	2 µg/mL (≈ 3.62 µM)	96.7%	inactive	18.5%	1 µg/mL (≈ 1.81 µM)	4 µg/mL (≈ 7.24 µM)	4 µg/mL (≈ 7.24 µM)	inactive	1 µg/mL (≈ 1.81 µM)	1 µg/mL (≈ 1.81 µM)	4 µg/mL	inactive	1 µg/mL (≈ 1.81 µM)	Non-Toxic	> 80%	2 µg/mL (≈ 3.62 µM)	8 µg/mL	IC50 [32]: 27 µg/mL (≈ 48.9 µM); log(activity) [33]: 6; Activity [34]: inactive; MIC [35]: 1 µg/mL (≈ 1.81 µM); Activity [36]: Active; Activity [37]: Active; MBBC [38]: 8 µg/mL; MIC [39]: 2 µg/mL (≈ 3.62 µM); Activity [40]: Active; MIC [26]: 1 µg/mL (≈ 1.81 µM); MIC [27]: 0.5 µg/mL (≈ 0.905 µM); Activity [29]: < 10%; MIC [41]: 2 µg/mL (≈ 3.62 µM); Activity [30]: 32.8%; MIC [31]: 1 µg/mL (≈ 1.81 µM)
